Measured values published in patent US10640495B2, “Heterocycle derivatives having TrkA inhibitory activity” (Shionogi & Co., Ltd., priority 2015, dated 2020).
Read-outs that look alike come from different tables or passages of the source.

Target: human TrkA (Homo sapiens (Human), UniProt P04629)
Assay: Human TrkA inhibition assay (Test Example 2)
Assay type: biochemical
Procedure, shortened: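 Mobility-shift readout of phosphorylated versus unphosphorylated fluorescent peptide gave conversion ratio, normalized to DMSO and no-enzyme wells; IC50 by logistic fit of 10- or 15-point 3-fold dilutions. Conditions: 1 nmol/L enzyme, 15 min compound preincubation, then 500 μmol/L ATP plus 1.5 μmol/L peptide, 120 min, 37 °C.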

[1] = Table 156, human TrkA inhibition, read-out: IC50
[2] = human TrkA 1 nmol/L, ATP 500 μmol/L, 120 min at 37° C., read-out: IC50 values (TrkA phosphorylation inhibition)
[3] = Table 155, human TrkA inhibition, read-out: IC50
[4] = Table 154, human TrkA inhibition, read-out: IC50
[5] = Table 153, human TrkA inhibition, read-out: IC50
[6] = Table 157, human TrkA inhibition, read-out: IC50

human TrkA, sequence (P04629 440-796): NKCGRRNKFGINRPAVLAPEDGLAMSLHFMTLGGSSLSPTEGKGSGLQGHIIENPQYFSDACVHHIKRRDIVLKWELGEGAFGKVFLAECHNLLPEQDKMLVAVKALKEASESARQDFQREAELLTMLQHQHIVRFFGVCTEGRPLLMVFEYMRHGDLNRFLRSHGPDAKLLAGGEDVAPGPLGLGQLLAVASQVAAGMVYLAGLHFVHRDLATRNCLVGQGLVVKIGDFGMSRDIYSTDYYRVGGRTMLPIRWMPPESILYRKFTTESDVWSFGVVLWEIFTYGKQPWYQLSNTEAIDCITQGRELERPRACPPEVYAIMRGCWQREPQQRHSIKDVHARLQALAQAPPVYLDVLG

An IC50 [1] of under 100 nM was found for `COCCN1C[C@@H](NC(=O)Nc2c(C)c(-c3ccc(COC(C)=O)nc3)nn2-c2ccccc2)[C@H](c2ccc(F)c(F)c2)O1` [Compound I-531] in this work.
An IC50 [2] of 22 nM was found for `COCCN1C[C@@H](NC(=O)Nc2c(C)c(OCC(C)(C)O)nn2-c2ccccc2)[C@H](c2cnc(F)c(F)c2)O1` [Compound I-82] in this work.
An IC50 [3] of under 100 nM was found for `COCCN1C[C@@H](NC(=O)Nc2c(C)c(OCC3CN(C)CCO3)nn2-c2ccccc2)[C@H](c2ccnc(F)c2)O1` (some centres unmarked) [Compound I-505] in this work.
An IC50 [3] of under 100 nM was found for `CNC(=O)c1ccc(-c2nn(-c3ccccc3)c(NC(=O)N[C@@H]3CN(CCOC)O[C@H]3c3ccnc(F)c3)c2C)cn1` (racemic) [Compound I-452] in this work.
An IC50 [1] of under 100 nM was found for `CCN1C[C@@H](NC(=O)Nc2c(C)c(OCC3CCNCC3)nn2-c2ccccc2)[C@H](c2ccc(F)cc2)O1` (racemic) [Compound I-562] in this work.
An IC50 [4] of under 100 nM was found for `COCCN1C[C@@H](NC(=O)Nc2c(C)c(-c3cnc(C)s3)nn2-c2ccccc2)[C@H](c2ccnc(F)c2)O1` (racemic) [Compound I-287] in this work.
An IC50 [5] of under 100 nM was found for `COCCN1C[C@@H](NC(=O)Nc2c(C)c(-c3cnc4c(c3)ncn4C)nn2-c2ccccc2)[C@H](c2ccccc2)O1` (racemic) [Compound I-161] in this work.
An IC50 [3] of under 100 nM was found for `COCCN1C[C@@H](NC(=O)Nc2c(C)c(-c3cnn(C)c3)nn2-c2ccccn2)[C@H](c2ccc(F)c(F)c2)O1` [Compound I-447] in this work.
An IC50 [1] of under 100 nM was found for `COCCN1C[C@@H](NC(=O)Nc2c(C)c(OCC3CN(C(C)=O)CCO3)nn2-c2ccccc2)[C@H](c2ccc(F)c(F)c2)O1` (single isomer, unassigned) [Compound I-577] in this work.
An IC50 [4] of under 100 nM was found for `COCCN1C[C@@H](NC(=O)Nc2c(C)c(-c3cnc4c(ccc(=O)n4C)c3)nn2-c2ccccc2)[C@H](c2ccc(F)c(F)c2)O1` [Compound I-229] in this work.
An IC50 (Table 152, human TrkA inhibition, read-out: IC50_nM) of under 100 nM was found for `COCC[C@@H]1C[C@@H](NC(=O)Nc2c(C)c(-c3cnn(C)c3)nn2-c2ccccc2)[C@H](c2ccc(F)c(F)c2)O1` (racemic) [Compound I-23] in this work.
An IC50 [2] of 2.9 nM was found for `COCC[C@@H]1C[C@@H](NC(=O)Nc2c(C)c(-c3cnn(C)c3)nn2-c2ccccc2)[C@H](c2ccc(F)c(F)c2)O1` [Compound I-25] in this work.
An IC50 [1] of under 100 nM was found for `COCCN1C[C@@H](NC(=O)Nc2c(C)c(C(F)(F)F)nn2-c2ccccc2)[C@H](c2ccnc(F)c2)O1` (racemic) [Compound I-534] in this work.
An IC50 [3] of under 100 nM was found for `COCCN1C[C@@H](NC(=O)Nc2c(C)c(-c3cnc(OC)cn3)nn2-c2ccccc2)[C@H](c2ccnc(F)c2)O1` (racemic) [Compound I-352] in this work.
An IC50 [1] of under 100 nM was found for `COCCN1C[C@@H](NC(=O)Nc2c(C)c(-c3ccnc(C)c3)nn2-c2ccccc2)[C@H](c2ccnc(F)c2)O1` (racemic) [Compound I-529] in this work.
An IC50 [1] of under 100 nM was found for `CCN1C[C@@H](NC(=O)Nc2c(C)c(-c3cnc(N4CCN(C)CC4)nc3)nn2-c2ccccc2)[C@H](c2ccc(F)c(F)c2)O1` (racemic) [Compound I-540] in this work.
An IC50 [3] of under 100 nM was found for `COCCN1C[C@@H](NC(=O)Nc2c(C)c(-c3ccc(N=S(C)(C)=O)nc3)nn2-c2ccccc2)[C@H](c2ccc(F)cc2)O1` [Compound I-334] in this work.
An IC50 [3] of under 100 nM was found for `COCCN1C[C@@H](NC(=O)Nc2c(C)c(-c3cnc4c(cnn4C)c3)nn2-c2ccccc2)[C@H](c2ccc(F)c(F)c2)O1` [Compound I-473] in this work.
An IC50 [3] of under 100 nM was found for `COCCN1C[C@@H](NC(=O)Nc2c(C)c(-c3cnc(N4CCCC4)nc3)nn2-c2ccccc2)[C@H](c2ccnc(F)c2)O1` (racemic) [Compound I-378] in this work.
An IC50 [6] of 100 to 1000 nM was found for `COCCN1C[C@@H](NC(=O)Nc2c(C(F)F)c(C)nn2-c2ccccc2)[C@H](c2ccnc(F)c2)O1` (racemic) [Compound I-673] in this work.
An IC50 [6] of under 100 nM was found for `CCN1CCC(Oc2nn(-c3ccccc3)c(NC(=O)N[C@@H]3CN(CCOC)O[C@H]3c3ccc(F)c(F)c3)c2C)CC1` [Compound I-604] in this work.
An IC50 [3] of under 100 nM was found for `COCCN1C[C@@H](NC(=O)Nc2c(C)c(-c3cnc4c(c3)nc(N3CCN(C)CC3)n4C)nn2-c2ccccc2)[C@H](c2ccnc(F)c2)O1` (racemic) [Compound I-399] in this work.
An IC50 [4] of under 100 nM was found for `COCCN1C[C@@H](NC(=O)Nc2c(C)c(-c3cnc(OC)nc3)nn2-c2ccccc2)[C@H](c2ccc(F)cc2)O1` (racemic) [Compound I-247] in this work.
An IC50 [4] of 100 to 1000 nM was found for `Cc1c(-c2cnc3c(cnn3C)c2)nn(-c2ccccc2)c1NC(=O)N[C@@H]1CN(CC2COC2)O[C@H]1c1ccc(F)c(F)c1` (racemic) [Compound I-202] in this work.
An IC50 [3] of under 100 nM was found for `COCCN1C[C@@H](NC(=O)Nc2c(C)c(-c3cnc(C4CCOCC4)nc3)nn2-c2ccccc2)[C@H](c2ccnc(F)c2)O1` (racemic) [Compound I-513] in this work.
An IC50 [1] of under 100 nM was found for `COCCN1C[C@@H](NC(=O)Nc2c(C)c(OC3CNC3)nn2-c2ccccc2)[C@H](c2ccc(F)c(F)c2)O1` [Compound I-574] in this work.
An IC50 [6] of 100 to 1000 nM was found for `CCN1C[C@@H](NC(=O)Nc2c(C)c(CCN(C)C)nn2-c2ccccc2)[C@H](c2ccc(F)c(F)c2)O1` (racemic) [Compound I-642] in this work.
An IC50 [3] of under 100 nM was found for `COCCN1C[C@@H](NC(=O)Nc2c(C)c(-c3cnc(OC)c(C4(O)CC4)c3)nn2-c2ccccc2)[C@H](c2ccnc(F)c2)O1` (racemic) [Compound I-355] in this work.
An IC50 [1] of under 100 nM was found for `CCN1C[C@@H](NC(=O)Nc2c(C)c(OCC3CN(C)CCO3)nn2-c2ccccc2)[C@H](c2ccc(F)c(F)c2)O1` (some centres unmarked) [Compound I-548] in this work.
An IC50 [4] of under 100 nM was found for `COCCN1C[C@@H](NC(=O)Nc2c(C)c(-c3ccc4nc(C(N)=O)cn4c3)nn2-c2ccccc2)[C@H](c2ccnc(F)c2)O1` (racemic) [Compound I-282] in this work.
An IC50 [2] of 8.1 nM was found for `COCC[C@@H]1C[C@@H](NC(=O)Nc2c(C)c(-c3cnc(C)nc3)nn2-c2ccccc2)[C@H](c2ccnc(F)c2)O1` [Compound I-237] in this work.
An IC50 [2] of 5 nM was found for `CCN1C[C@@H](NC(=O)Nc2c(C)c(C3=CCN(C(=O)CO)CC3)nn2-c2ccccc2)[C@H](c2ccc(F)c(F)c2)O1` (racemic) [Compound I-655] in this work.
An IC50 [1] of under 100 nM was found for `CCN1C[C@@H](NC(=O)Nc2c(C)c(OCC3CNCCO3)nn2-c2ccccc2)[C@H](c2ccc(F)c(F)c2)O1` (some centres unmarked) [Compound I-537] in this work.
An IC50 [5] of under 100 nM was found for `COCCN1C[C@@H](NC(=O)Nc2c(C)c(-c3cnn(C)c3)nn2-c2ccccc2)[C@H](c2cnc(F)c(F)c2)O1` (racemic) [Compound I-52] in this work.
An IC50 [4] of under 100 nM was found for `CNS(=O)(=O)c1cc(-c2nn(-c3ccccc3)c(NC(=O)N[C@@H]3CN(CCOC)O[C@H]3c3ccnc(F)c3)c2C)cn(C)c1=O` (racemic) [Compound I-178] in this work.
An IC50 [1] of under 100 nM was found for `CCN1C[C@@H](NC(=O)Nc2c(C)c(-c3cnc4c(c3)oc(=O)n4C)nn2-c2ccccc2)[C@H](c2ccc(F)c(F)c2)O1` (racemic) [Compound I-539] in this work.
An IC50 [6] of under 100 nM was found for `COCCN1C[C@@H](NC(=O)Nc2c(C)c(-c3cnc(N4CCN(C)[C@@H](C)C4)nc3)nn2-c2ccccc2)[C@H](c2ccnc(F)c2)O1` [Compound I-593] in this work.
An IC50 [3] of under 100 nM was found for `COCCN1C[C@@H](NC(=O)Nc2c(C)c(-c3cnc(C(C)(C)O)c(F)c3)nn2-c2ccccc2)[C@H](c2ccnc(F)c2)O1` (racemic) [Compound I-459] in this work.
An IC50 [1] of under 100 nM was found for `CCN1C[C@@H](NC(=O)Nc2c(C)c(-c3cnc(OC)c(C(=O)NC4CCOCC4)c3)nn2-c2ccccc2)[C@H](c2ccc(F)c(F)c2)O1` (racemic) [Compound I-545] in this work.
An IC50 [3] of under 100 nM was found for `COCC[C@@H]1C[C@@H](NC(=O)Nc2c(C)c(-c3cnc4c(c3)c(=O)n(C)n4C)nn2-c2ccccc2)[C@H](c2ccnc(F)c2)O1` [Compound I-330] in this work.
An IC50 [6] of under 100 nM was found for `COCCN1C[C@@H](NC(=O)Nc2c(C)c(-c3cnc(N4CC[C@@H](N(C)C)C4)nc3)nn2-c2ccccc2)[C@H](c2ccnc(F)c2)O1` [Compound I-587] in this work.
An IC50 [3] of under 100 nM was found for `COCCN1C[C@@H](NC(=O)Nc2c(C)c(OCC3CNCCO3)nn2-c2ccccc2)[C@H](c2ccnc(F)c2)O1` (some centres unmarked) [Compound I-500] in this work.
An IC50 [5] of under 100 nM was found for `COCCN1C[C@@H](NC(=O)Nc2c(C)c(-c3cnc(C(=O)NCC(F)(F)F)c(C)c3)nn2-c2ccccc2)[C@H](c2ccnc(F)c2)O1` (racemic) [Compound I-168] in this work.
An IC50 [6] of under 100 nM was found for `CNC(=O)c1cc(-c2nn(-c3ccccc3)c(NC(=O)N[C@@H]3CN(CCOC)O[C@H]3c3ccc(F)c(F)c3)c2C)ccn1` [Compound I-595] in this work.
An IC50 [3] of under 100 nM was found for `COCCN1C[C@@H](NC(=O)Nc2c(C)c(-c3cnc4c(c3)c(C(=O)NC3CCN(C)CC3)nn4C)nn2-c2ccccc2)[C@H](c2ccnc(F)c2)O1` (racemic) [Compound I-376] in this work.
An IC50 [3] of under 100 nM was found for `COCCN1C[C@@H](NC(=O)Nc2c(C)c(-c3cnc(N4CC(F)(F)C4)nc3)nn2-c2ccccc2)[C@H](c2ccnc(F)c2)O1` (racemic) [Compound I-481] in this work.
An IC50 [4] of under 100 nM was found for `COCCN1C[C@@H](NC(=O)Nc2c(C)c(-c3cnc(OC)nc3)nn2-c2ccccc2)[C@H](c2cc(F)nc(F)c2)O1` (racemic) [Compound I-187] in this work.
An IC50 [2] of 4.2 nM was found for `COCCN1C[C@@H](NC(=O)Nc2c(C)c(-c3ccnc(C(=O)NOC)c3)nn2-c2ccccc2)[C@H](c2ccnc(F)c2)O1` (racemic) [Compound I-232] in this work.
An IC50 [5] of under 100 nM was found for `COCCN1C[C@@H](NC(=O)Nc2c(C)c(-c3cnc(N(C(=O)OC(C)(C)C)C4CC4)nc3)nn2-c2ccccc2)[C@H](c2ccnc(F)c2)O1` (racemic) [Compound I-120] in this work.
An IC50 [4] of under 100 nM was found for `CNC(=O)c1nc2cc(-c3nn(-c4ccccc4)c(NC(=O)N[C@@H]4CN(CCOC)O[C@H]4c4ccnc(F)c4)c3C)cnc2n1C` (racemic) [Compound I-224] in this work.
An IC50 [6] of 100 to 1000 nM was found for `CCN1C[C@@H](NC(=O)Nc2c(C)c(OCC(=O)NCCN(C)C)nn2-c2ccccc2)[C@H](c2ccc(F)c(F)c2)O1` (racemic) [Compound I-650] in this work.
An IC50 [4] of under 100 nM was found for `COCCN1C[C@@H](NC(=O)Nc2c(C)c(-n3cnc(C)c3)nn2-c2ccccc2)[C@H](c2cnc(F)c(F)c2)O1` (racemic) [Compound I-297] in this work.
An IC50 [4] of under 100 nM was found for `COCCN1C[C@@H](NC(=O)Nc2c(C)c(-c3cnc4c(c3)nc(C(N)=O)n4C)nn2-c2ccccc2)[C@H](c2ccc(F)c(F)c2)O1` [Compound I-221] in this work.
